In PubChem BioAssay AID2060357 (Molecular Pharmacology Branch, DTP, NCI, 2025):
Several values for one entry are separate records, joined by “and”; a condition that tells them apart may be missing. Equal entries are not always repeated.

Test system: 292921-168-R-J2-PDC spheroids with HUVEC/MSC, viability
Assay: Anticancer human tumor 292921-168-R-J2-PDC patient-derived pancreatic carcinoma cell line growth inhibition [TAK]
Conditions: for viability, T/C: stronger effect = lower value
Text: Combinatorial screen of targeted agents with TAK-243 and ipatasertib in multi-cell type tumor spheroids
A high-throughput screen of multi-cell type tumor spheroids was designed to identify active combinations of targeted small molecules and TAK-243 or ipatasertib. Complex spheroids include a stromal component modeled by human endothelial cells (HUVEC) and fibroblasts modeled by human mesenchymal stem cells (MSCs). The concentration ranges selected for each drug and investigational agent were based upon clinically achievable concentrations if the clinical Cmax of the agent was known.
Compounds. The drugs and investigational agents: TAK-243 (785004), ipatasertib (767898), everolimus (733504), selumetinib (741078), bortezomib (756655), trametinib (758246), ixazomib (758254), vemurafenib (761431), dabrafenib (764134), sapanisertib (764658), alpelisib (765974), and copanlisib (816437), were obtained from the National Cancer Institute (NCI) Developmental Therapeutics Program Chemical Repository. The FDA-approved anticancer drug set is available from the NCI Developmental Therapeutics Program. […] The stock solutions were prepared in dimethyl sulfoxide (DMSO, Sigma-Aldrich, St. Louis, MO, cat. D2650) at 800-fold the tested concentration and stored at -70 degrees C prior to their use. All drugs and investigational agents were tested over a range starting from a high concentration at or near the clinical Cmax and decreasing in half-log increments. If the clinical Cmax for an agent had not been determined, the highest concentration tested was 10 microM.
NCI60 Cell Culture. NCI60 cell lines were obtained from the NCI Developmental Therapeutics Program Tumor Repository. For each lot of cells, the Repository performed Applied Biosystems AmpFLSTR Identifiler testing with PCR amplification to confirm consistency with the published Identifier STR profile for each cell line. Cells were kept in continuous culture for no more than 20 passages. The optimal seeding densities for each of the cell lines at each time point assessed were determined prior to performing the concentration response studies. Briefly, the NCI60 human tumor lines were grown as monolayers in RPMI 1640 medium supplemented with 10% FBS and 2 mmol/L L-glutamine.
An additional 2 lines were from the NCI60 cell line panel including melanomas, MALME-3M and SK-MEL-2. Pooled donor human umbilical vein endothelial cells (HUVEC, Lonza, cat. CC-2519) and human mesenchymal stem cells (hMSC, Lonza, cat. PT-2501) were purchased from Lonza (Walkersville, MD).
PDMR cell lines were grown in complete medium (DC medium): Dulbecco's modified Eagle's medium (DMEM)/F12 supplemented with 5% fetal bovine serum (FBS), 2 mM L-glutamine, 100 U/mL penicillin and 100 µg/ml streptomycin, 0.4 µg/ml hydrocortisone, 10 ng/ml epidermal growth factor (EGF) recombinant human protein, 24 µg/mL adenine, and 0.1 mg/mL primocin. During culture from frozen stock vials, PDMR cells were cultured in the same medium containing 10 µM Y-27632 (see Table 3). The PDCs were cultured in complete DMEM/F12 media without 10 microM Y-27632 dihydrochloride for at least two passages prior to the screen. The pooled donor HUVEC and hMSC were cultured in endothelial cell growth medium 2 (PromoCell, Heidelberg, Germany, cat. C-22011) and mesenchymal stem cell growth medium 2 (PromoCell, cat. C-28009), respectively. For all experiments, HUVEC and hMSC were used at passages </=5.
For the pre-screen, cell seeding densities were determined from a titration spanning the range from 5,000 to 313 cells per well. The mct-spheroids including 60% malignant cells, 25% HUVEC and 15% MSC dispensed as a mixture into U-bottom Ultra-Low Attachment 384-well plates (Corning, NY)
High-throughput Drug Combination Screening.
Prior to their inoculation into 384-well plates, malignant cells, HUVEC, and hMSC were removed from T flasks using TrypLE express (Thermo Fisher Scientific, cat. 12605036) and harvested by centrifugation for 5 min at 233 x g. […]

[1] = curve of first compound, second compound 0.3 µM
[2] = curve of first compound, second compound 0.949 µM
[3] = curve of first compound, second compound 3 µM
[4] = curve of first compound, second compound 9.49 µM
[5] = curve of first compound, second compound 30 µM
[6] = second compound 0.3 µM, first compound 0.316 µM
[7] = second compound 0.3 µM, first compound 1 µM
[8] = second compound 0.3 µM, first compound 3.16 µM
[9] = second compound 0.3 µM, first compound 10 µM
[10] = second compound 0.949 µM, first compound 0.316 µM
[11] = second compound 0.949 µM, first compound 1 µM
[12] = second compound 0.949 µM, first compound 3.16 µM
[13] = second compound 0.949 µM, first compound 10 µM
[14] = second compound 3 µM, first compound 0.316 µM
[15] = second compound 3 µM, first compound 1 µM
[16] = second compound 3 µM, first compound 3.16 µM
[17] = second compound 3 µM, first compound 10 µM
[18] = second compound 9.49 µM, first compound 0.316 µM
[19] = second compound 9.49 µM, first compound 1 µM
[20] = second compound 9.49 µM, first compound 3.16 µM
[21] = second compound 9.49 µM, first compound 10 µM
[22] = second compound 30 µM, first compound 0.316 µM
[23] = second compound 30 µM, first compound 1 µM
[24] = second compound 30 µM, first compound 3.16 µM
[25] = second compound 30 µM, first compound 10 µM
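Note: spheroids exposed to drugs for seven days before readout.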

## CC(C)(C)c1nc(-c2cccc(NS(=O)(=O)c3c(F)cccc3F)c2F)c(-c2ccnc(N)n2)s1 + CC(C)NCC(C(=O)N1CCN(c2ncnc3c2C(C)CC3O)CC1)c1ccc(Cl)cc1
[1]
  IC50: 2270 nM
[2]
  IC50: 1800 nM
[3]
  IC50: 1250 nM
[4]
  IC50: 682 nM
[5]
  IC50: < 31.6 nM
Second compound 0.3 µM, first compound 0.0316 µM
  viability, T/C: 94.8%
Second compound 0.3 µM, first compound 0.1 µM
  viability, T/C: 94.7%
[6]
  viability, T/C: 88.7%
[7]
  viability, T/C: 74.2%
[8]
  viability, T/C: 40.1%
[9]
  viability, T/C: 20.5%
Second compound 0.949 µM, first compound 0.0316 µM
  viability, T/C: 85.2%
Second compound 0.949 µM, first compound 0.1 µM
  viability, T/C: 92%
[10]
  viability, T/C: 80.5%
[11]
  viability, T/C: 66.9%
[12]
  viability, T/C: 34.2%
[13]
  viability, T/C: 17.9%
Second compound 3 µM, first compound 0.0316 µM
  viability, T/C: 83.4%
Second compound 3 µM, first compound 0.1 µM
  viability, T/C: 85.9%
[14]
  viability, T/C: 77.4%
[15]
  viability, T/C: 55.2%
[16]
  viability, T/C: 27.5%
[17]
  viability, T/C: 15.8%
Second compound 9.49 µM, first compound 0.0316 µM
  viability, T/C: 72.5%
Second compound 9.49 µM, first compound 0.1 µM
  viability, T/C: 70.8%
[18]
  viability, T/C: 64.7%
[19]
  viability, T/C: 42.5%
[20]
  viability, T/C: 22.7%
[21]
  viability, T/C: 15.2%
Second compound 30 µM, first compound 0.0316 µM
  viability, T/C: 46.5%
Second compound 30 µM, first compound 0.1 µM
  viability, T/C: 49.8%
[22]
  viability, T/C: 44.1%
[23]
  viability, T/C: 35.6%
[24]
  viability, T/C: 19.8%
[25]
  viability, T/C: 14.1%

## CC(C)CC(NC(=O)C(Cc1ccccc1)NC(=O)c1cnccn1)B(O)O (stereo not given)
Compound 31.6 pM
  viability, T/C: 99.4% and 103%
Compound 0.0001 µM
  viability, T/C: 102%
Compound 0.000316 µM
  viability, T/C: 104% and 107%
Compound 0.001 µM
  viability, T/C: 96.7% and 104%
Compound 0.00316 µM
  viability, T/C: 88.3% and 74.9%
Compound 0.01 µM
  viability, T/C: 7.89% and 7.64%
Curve of compound
  IC50: 5.46 nM and 4.85 nM

## COc1c(OCCCN2CCOCC2)ccc2c3n(c(=NC(=O)c4cnc(N)nc4)nc12)CCN3
Compound 0.00316 µM
  viability, T/C: 74.5% and 83.2%
Compound 0.01 µM
  viability, T/C: 43.7% and 51.3%
Compound 0.0316 µM
  viability, T/C: 28.2% and 30.1%
Compound 0.1 µM
  viability, T/C: 14.5% and 16.6%
Compound 0.316 µM
  viability, T/C: 10.4% and 12.4%
Compound 1 µM
  viability, T/C: 8.83% and 11.2%
Curve of compound
  IC50: 8.15 nM and 10.9 nM

## CCCS(=O)(=O)Nc1ccc(F)c(C(=O)c2c[nH]c3ncc(-c4ccc(Cl)cc4)cc23)c1F + CC(C)NCC(C(=O)N1CCN(c2ncnc3c2C(C)CC3O)CC1)c1ccc(Cl)cc1
[1]
  IC50: 29900 nM
[2]
  IC50: > 100000 nM
[3]
  IC50: 11000 nM
[4]
  IC50: 5500 nM
[5]
  IC50: < 316 nM
[6]
  viability, T/C: 109%
[7]
  viability, T/C: 106%
[8]
  viability, T/C: 102%
[9]
  viability, T/C: 67.5%
Second compound 0.3 µM, first compound 31.6 µM
  viability, T/C: 44.7%
Second compound 0.3 µM, first compound 100 µM
  viability, T/C: 52.2%
[10]
  viability, T/C: 95.2%
[11]
  viability, T/C: 104%
[12]
  viability, T/C: 89.6%
[13]
  viability, T/C: 52.5%
Second compound 0.949 µM, first compound 31.6 µM
  viability, T/C: 41.4%
Second compound 0.949 µM, first compound 100 µM
  viability, T/C: 65.2%
[14]
  viability, T/C: 94.7%
[15]
  viability, T/C: 96%
[16]
  viability, T/C: 81.3%
[17]
  viability, T/C: 44.2%
Second compound 3 µM, first compound 31.6 µM
  viability, T/C: 41%
Second compound 3 µM, first compound 100 µM
  viability, T/C: 16.8%
[18]
  viability, T/C: 72.5%
[19]
  viability, T/C: 75.4%
[20]
  viability, T/C: 62.5%
[21]
  viability, T/C: 35.5%
Second compound 9.49 µM, first compound 31.6 µM
  viability, T/C: 26.2%
Second compound 9.49 µM, first compound 100 µM
  viability, T/C: 17.7%
[22]
  viability, T/C: 48.3%
[23]
  viability, T/C: 49.2%
[24]
  viability, T/C: 35.7%
[25]
  viability, T/C: 16.6%
Second compound 30 µM, first compound 31.6 µM
  viability, T/C: 14.9%
Second compound 30 µM, first compound 100 µM
  viability, T/C: 9.5%

## CC(C)NCC(C(=O)N1CCN(c2ncnc3c2C(C)CC3O)CC1)c1ccc(Cl)cc1 (stereo not given)
Compound 0.3 µM
  viability, T/C: 87.8% [middle of 10 runs]
Compound 0.949 µM
  viability, T/C: 83% [middle of 10 runs]
Compound 3 µM
  viability, T/C: 77.3% [middle of 10 runs]
Compound 9.49 µM
  viability, T/C: 62.3% [middle of 10 runs]
Compound 30 µM
  viability, T/C: 42.4% [middle of 10 runs]
Compound alone, run of 02/20/2020
  IC50: 18800 nM
